Results published in US12187728B2 (Raze Therapeutics, Inc., priority 2015, dated 2025).

Molecular target: T1, Human MTHFD2 (Homo sapiens, UniProt P13995)
T1 construct: residues 36-350 in Uniport ID P13995; His6 (N); made in house; host or cells: E. coli
T1 sequence (P13995 36-350): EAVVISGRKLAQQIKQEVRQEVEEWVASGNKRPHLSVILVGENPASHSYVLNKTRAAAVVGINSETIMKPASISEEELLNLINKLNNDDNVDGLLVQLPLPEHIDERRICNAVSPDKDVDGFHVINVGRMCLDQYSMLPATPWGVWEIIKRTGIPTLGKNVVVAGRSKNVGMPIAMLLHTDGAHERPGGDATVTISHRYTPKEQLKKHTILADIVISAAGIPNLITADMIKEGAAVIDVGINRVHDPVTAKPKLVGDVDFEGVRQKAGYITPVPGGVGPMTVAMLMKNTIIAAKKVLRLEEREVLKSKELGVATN
Assay: MTHFD2 Activity Assay (dehydrogenase activity, diaphorase/resazurin coupled fluorescence)
Type: biochemical
Settings: inhibitory activity (IC50 and/or binding constant); 0.2 nM MTHFD2, 11 concentrations
Summary of the method: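 Steps: compound + 0.2 nM enzyme, 15 min, pH 8.0 Hepes buffer; add 70 μM CH2-THF, 1 mM NAD+, 100 μM resazurin, diaphorase; 30 min; quench with EDTA; read fluorescence. Data normalized to DMSO (100%) and no-enzyme (0%) wells.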

`Cn1c(N[C@H]2CCC[C@H](C(=O)O)C2)nc2c1c(=O)n(Cc1ccc(Cl)c(Cl)c1)c(=O)n2C` (single isomer, unassigned) [Example 186, (1S,3S)-3-(1-(3,4-dichlorobenzyl)-3,7-dimethyl-2,6-dioxo-2,3,6,7-tetrahydro-1H-purin-8-ylamino)cyclohexanecarboxylic or (1R,3R)-3-(1-(3,4-dichlorobenzyl)-3,7-dimethyl-2,6-dioxo-2,3,6,7-tetrahydro-1H-purin-8-ylamino)cyclohexanecarboxylic acid] and `Cn1c(N[C@@H]2CCC[C@H](C(=O)O)C2)nc2c1c(=O)n(Cc1ccc(Cl)c(Cl)c1)c(=O)n2C` (single isomer, unassigned) [Example 187, (1S,3R)-3-(1-(3,4-dichlorobenzyl)-3,7-dimethyl-2,6-dioxo-2,3,6,7-tetrahydro-1H-purin-8-ylamino)cyclohexanecarboxylic acid or (1R,3S)-3-(1-(3,4-dichlorobenzyl)-3,7-dimethyl-2,6-dioxo-2,3,6,7-tetrahydro-1H-purin-8-ylamino)cyclohexanecarboxylic acid] fall in the same range of IC50: 10 to 1000 nM for the first, 10 to 1000 nM for the second.

`Cn1c(N[C@H]2CCC[C@H](C(=O)O)C2)nc2c1c(=O)n(Cc1ccc(Cl)c(Cl)c1)c(=O)n2C` (single isomer, unassigned) [Example 209, (1S,3S)-3-(1-(3,4-dichlorobenzyl)-3,7-dimethyl-2,6-dioxo-2,3,6,7-tetrahydro-1H-purin-8-ylamino)cyclohexanecarboxylic or (1R,3R)-3-(1-(3,4-dichlorobenzyl)-3,7-dimethyl-2,6-dioxo-2,3,6,7-tetrahydro-1H-purin-8-ylamino)cyclohexanecarboxylic acid] and `Cn1c(N[C@@H]2CC[C@H](CO)C2)nc2c1c(=O)n(Cc1ccc(Cl)c(Cl)c1)c(=O)n2C` (stereo in doubt) [Example 275, 1-(3,4-dichlorobenzyl)-8-((1R,3S)-3-(hydroxymethyl)cyclopentylamino)-3,7-dimethyl-1H-purine-2,6(3H,7H)-dione] fall in the same range of IC50: 10 to 1000 nM for the first, 10 to 1000 nM for the second.

First: Cn1c(N[C@H]2CCC(=O)NC2)nc2c1c(=O)n(Cc1cc3ccccc3[nH]1)c(=O)n2C (single isomer, unassigned) [Example 228, (S)-1-((1H-indol-2-yl)methyl)-3,7-dimethyl-8-(6-oxopiperidin-3-ylamino)-1H-purine-2,6(3H,7H)-dione or (R)-1-((1H-indol-2-yl)methyl)-3,7-dimethyl-8-(6-oxopiperidin-3-ylamino)-1H-purine-2,6(3H,7H)-dione]
Second: Cn1c(N[C@H]2CC[C@@H](CO)C2)nc2c1c(=O)n(Cc1cc3ccccc3[nH]1)c(=O)n2C (stereo in doubt) [Example 317, 1-((1H-indol-2-yl)methyl)-8-((1S,3R)-3-(hydroxymethyl)cyclopentylamino)-3,7-dimethyl-1H-purine-2,6(3H,7H)-dione]
The IC50 of the first is higher: 1000 to 5000 nM for the first, 10 to 1000 nM for the second.

`Cn1c(Nc2ccnc([C@@H]3C[C@H]3C(=O)O)c2)nc2c1c(=O)n(Cc1ccc(Cl)c(Cl)c1)c(=O)n2C` (single isomer, unassigned) [Example 300, (1R,2R)-2-(4-((1-(3,4-dichlorobenzyl)-3,7-dimethyl-2,6-dioxo-2,3,6,7-tetrahydro-1H-purin-8-yl)amino)pyridin-2-yl)cyclopropanecarboxylic acid or (1S,2S)-2-(4-((1-(3,4-dichlorobenzyl)-3,7-dimethyl-2,6-dioxo-2,3,6,7-tetrahydro-1H-purin-8-yl)amino)pyridin-2-yl)cyclopropanecarboxylic acid] and `Cn1c(Nc2ccnc([C@H]3C[C@@H]3C(=O)O)c2)nc2c1c(=O)n(Cc1ccc(Cl)c(Cl)c1)c(=O)n2C` (single isomer, unassigned) [Example 301, (1S,2S)-2-(4-((1-(3,4-dichlorobenzyl)-3,7-dimethyl-2,6-dioxo-2,3,6,7-tetrahydro-1H-purin-8-yl)amino)pyridin-2-yl)cyclopropanecarboxylic acid or (1R,2R)-2-(4-((1-(3,4-dichlorobenzyl)-3,7-dimethyl-2,6-dioxo-2,3,6,7-tetrahydro-1H-purin-8-yl)amino)pyridin-2-yl)cyclopropanecarboxylic acid] fall in the same range of IC50: 10 to 1000 nM for the first, 10 to 1000 nM for the second.

`Cn1c(Nc2ccnc([C@@H]3C[C@H]3C(=O)O)c2)nc2c1c(=O)n(Cc1cc3c(Cl)cccc3[nH]1)c(=O)n2C` (single isomer, unassigned) [Example 322, (1R,2R)-2-(4-((1-((4-chloro-1H-indol-2-yl)methyl)-3,7-dimethyl-2,6-dioxo-2,3,6,7-tetrahydro-1H-purin-8-yl)amino)pyridin-2-yl)cyclopropanecarboxylic acid or (1S,2S)-2-(4-((1-((4-chloro-1H-indol-2-yl)methyl)-3,7-dimethyl-2,6-dioxo-2,3,6,7-tetrahydro-1H-purin-8-yl)amino)pyridin-2-yl)cyclopropanecarboxylic acid] and `Cn1c(Nc2ccnc([C@H]3C[C@@H]3C(=O)O)c2)nc2c1c(=O)n(Cc1cc3c(Cl)cccc3[nH]1)c(=O)n2C` (single isomer, unassigned) [Example 363, (1S,2S)-2-(4-((1-((4-chloro-1H-indol-2-yl)methyl)-3,7-dimethyl-2,6-dioxo-2,3,6,7-tetrahydro-1H-purin-8-yl)amino)pyridin-2-yl)cyclopropanecarboxylic acid or (1R,2R)-2-(4-((1-((4-chloro-1H-indol-2-yl)methyl)-3,7-dimethyl-2,6-dioxo-2,3,6,7-tetrahydro-1H-purin-8-yl)amino)pyridin-2-yl)cyclopropanecarboxylic acid] fall in the same range of IC50: 10 to 1000 nM for the first, 10 to 1000 nM for the second.

`Cn1c(Nc2ccnc([C@@H]3C[C@H]3CO)c2)nc2c1c(=O)n(Cc1ccc(Cl)c(Cl)c1)c(=O)n2C` (single isomer, unassigned) [Example 337, 1-(3,4-dichlorobenzyl)-8-((2-((1R,2R)-2-(hydroxymethyl)cyclopropyl)pyridin-4-yl)amino)-3,7-dimethyl-1H-purine-2,6(3H,7H)-dione or 1-(3,4-dichlorobenzyl)-8-((2-((1S,2S)-2-(hydroxymethyl)cyclopropyl)pyridin-4-yl)amino)-3,7-dimethyl-1H-purine-2,6(3H,7H)-dione] and `Cn1c(NCCO)nc2c1c(=O)n(Cc1ccc(Cl)c(Cl)c1)c(=O)n2C` [Example 1, 1-(3,4-dichlorobenzyl)-8-((2-hydroxyethyl)amino)-3,7-dimethyl-1H-purine-2,6(3H,7H)-dione] fall in the same range of IC50: 1000 to 5000 nM for the first, 1000 to 5000 nM for the second.

Compared with `Cn1c(Nc2ccnc([C@@H]3C[C@H]3CO)c2)nc2c1c(=O)n(Cc1ccc(Cl)c(Cl)c1)c(=O)n2C` (single isomer, unassigned) [Example 338, 1-(3,4-dichlorobenzyl)-8-((2((1R,2R)-2-(hydroxymethyl)cyclopropyl)pyridin-4-yl)amino)-3,7-dimethyl-1H-purine-2,6(3H,7H)-dione or 1-(3,4-dichlorobenzyl)-8-((2-((1S,2S)-2-(hydroxymethyl)cyclopropyl)pyridin-4-yl)amino)-3,7-dimethyl-1H-purine-2,6(3H,7H)-dione], `C[C@H](O)CNc1nc2c(c(=O)n(Cc3ccc(Cl)c(Cl)c3)c(=O)n2C)n1C` [Example 8, 1-[(3,4-dichlorophenyl)methyl]-8-{[(2S)-2-hydroxypropyl]amino}-3,7-dimethyl-2,3,6,7-tetrahydro-1H-purine-2,6-dione] is lower in IC50: 5000 to 10000 nM for the first, 10 to 1000 nM for the second. The second is the more potent here.

`Cn1c(Nc2cccc([C@@H]3C[C@H]3C(=O)O)n2)nc2c1c(=O)n(Cc1cc3c(Cl)cccc3[nH]1)c(=O)n2C` (single isomer, unassigned) [Example 398, (1R,2R)-2-(6-((1-((4-chloro-1H-indol-2-yl)methyl)-3,7-dimethyl-2,6-dioxo-2,3,6,7-tetrahydro-1H-purin-8-yl)amino)pyridin-2-yl)cyclopropanecarboxylic acid or (1S,2S)-2-(6-((1-((4-chloro-1H-indol-2-yl)methyl)-3,7-dimethyl-2,6-dioxo-2,3,6,7-tetrahydro-1H-purin-8-yl)amino)pyridin-2-yl)cyclopropanecarboxylic acid] and `C[C@H](N)c1nc2c(c(=O)n(Cc3cc4c(Cl)cccc4[nH]3)c(=O)n2C)n1C` (single isomer, unassigned) [Example 435, (S)-8-(1-aminoethyl)-1-((4-chloro-1H-indol-2-yl)methyl)-3,7-dimethyl-1H-purine-2,6(3H,7H)-dione or (R)-8-(1-aminoethyl)-1-((4-chloro-1H-indol-2-yl)methyl)-3,7-dimethyl-1H-purine-2,6(3H,7H)-dione] fall in the same range of IC50: 10 to 1000 nM for the first, 10 to 1000 nM for the second.

`C[C@@H](N)c1nc2c(c(=O)n(Cc3cc4c(Cl)cccc4[nH]3)c(=O)n2C)n1C` (single isomer, unassigned) [Example 436, (R)-8-(1-aminoethyl)-14(4-chloro-1H-indol-2-yl)methyl)-3,7-dimethyl-1H-purine-2,6(3H,7H)-dione or (S)-8-(1-aminoethyl)-1-((4-chloro-1H-indol-2-yl)methyl)-3,7-dimethyl-1H-purine-2,6(3H,7H)-dione] and `C[C@@H](O)CNc1nc2c(c(=O)n(Cc3ccc(Cl)c(Cl)c3)c(=O)n2C)n1C` [Example 9, 1-[(3,4-dichlorophenyl)methyl]-8-{[(2R)-2-hydroxypropyl]amino}-3,7-dimethyl-2,3,6,7-tetrahydro-1H-purine-2,6-dione] fall in the same range of IC50: 10 to 1000 nM for the first, 10 to 1000 nM for the second.

In the case of `Cn1c(NC[C@@H](O)CO)nc2c1c(=O)n(Cc1ccc(Cl)c(Cl)c1)c(=O)n2C` [Example 13, 1-[(3,4-dichlorophenyl)methyl]-8-{[(2R)-2,3-dihydroxypropyl]amino}-3,7-dimethyl-2,3,6,7-tetrahydro-1H-purine-2,6-dione], the IC50 is reported as 10 to 1000 nM.
